Measurements: patent US20220186188A1, “Method for Obtaining Pancreatic Progenitor Cells and Pancreatic Islet Beta Cells By Means of Differentiation of Human Pluripotent Stem Cells” (Asia Regenerative Medicine, Ltd., priority 2019, published 2022)

Experiments:
Format in all cases: cell-based
[1] = tested on: pancreatic progenitor cells and pancreatic islet β cells differentiated from human embryonic stem cells; experiment: Real-time fluorescence quantitative PCR of PDX1, NKX6-1 and INS mRNA (human embryonic stem cells); details: qPCR
Procedure: (§1) a pancreatic progenitor cell medium was prepared, the medium in step 1) was replaced with the pancreatic progenitor cell medium, and the cells were cultured in a carbon dioxide incubator at 37 degrees Celsius for 5 days, during which the medium was replaced every day, wherein the composition of the pancreatic progenitor cell medium was: with an MCDB131 medium as a basic medium, and the following components at the working concentrations were further included: 0.5% of bovine serum albumin (BSA), 1.5 g/L of sodium bicarbonate, 1×glutamine (GlutaMAX), 10 mM glucose, 0.25 M vitamin C, 1×insulin-transferrin-selenium-ethanolamine additive (ITS-X), 50 ng/ml of fibroblast growth factor 7 (KGF), 0.5 μM SANT1 (with smo as an inhibitor target), 100 nM retinoic acid (TTNPB), 500 nM phorbol 12,13-dibutyrate (PDBu), 2 μM ALK inhibitor (K02288), and 2 μM WNT signaling pathway inhibitor XAV-939 (not added in a control group), with the concentrations all being final concentrations.
(§2) b. pancreatic islet β cell medium 2 was prepared, the pancreatic islet β cell medium 1 in above-mentioned step a was replaced with the pancreatic islet β cell medium 2, and the cells were cultured in a carbon dioxide incubator at 37 degrees Celsius for 5 days, during which the medium was replaced every day, wherein the composition of the pancreatic islet β cell medium 1 was: with an MCDB131 medium as a basic medium, and the following components at the working concentrations were further included: 20 mM glucose, 2% of bovine serum albumin (BSA), 1.5 g/L of sodium bicarbonate, 1×glutamine (GlutaMAX), 0.05 mM vitamin C, 1×insulin-transferrin-selenium-ethanolamine additive (ITS-X), 2 μM ALK inhibitor (K02288), 1 μM triiodothyronine (T3), 10 μM YO-01027 (Notch signaling pathway inhibitor), and 10 μM zinc sulfate, with the concentrations all being final concentrations; and the composition of the pancreatic islet β cell medium 2 was: with an MCDB131 medium as a basic medium, and the following components at the working concentrations were further included: 20 mM glucose, 2% of bovine serum albumin (BSA), 1.5 g/L of sodium bicarbonate, 1×glutamine (GlutaMAX), 0.05 mM vitamin C, 1×insulin-transferrin-selenium-ethanolamine additive (ITS-X), 1 μM triiodothyronine (T3), 10 μM Repsox (ALK5 inhibitor), 10 μM vitamin E, 10 μg/ml of heparin sodium, 2 μM R428 (Axl inhibitor), 10 μM zinc sulfate, and 10 mM N-acetyl-L-cysteine (N-cys), with the concentrations all being final concentrations.
Cells cultured in a 24-well plate were collected, and washed twice with 500 μl of DPBS at first, then covered with 200 μl of chymotrypsin-trypsin (Trypsin), and placed at 37° C. for 5 minutes of digestion. Whether the cells float in pieces was observed, and the digestion was terminated using 500 μl of DMEM/F12 medium, then the product was centrifuged at 1000 rpm for 3 minutes, the supernatant was removed, and cell pellets were collected and added to a new RNase-free centrifuge tube. […]

[2] = tested on: pancreatic progenitor cells and pancreatic islet β cells differentiated from human induced pluripotent stem cells; experiment: Real-time fluorescence quantitative PCR of PDX1, NKX6-1 and INS mRNA (human induced pluripotent stem cells); details: qPCR
Procedure: as §1, with “factor” for “factor 7”, “concentrations. […]” for “concentrations.”

[3] = tested on: pancreatic progenitor cells and pancreatic islet β cells differentiated from human embryonic stem cells; experiment: Immunofluorescence detection of PDX1 and PDX1/INS proteins (human embryonic stem cells)
Procedure: as §1, §2
Cells in a culture plate were washed three times with a phosphate buffered saline (PBS), 3 minutes each time; the cells were fixed with 4% paraformaldehyde at room temperature for 20 minutes, and washed three times with PBS, 3 minutes each time; a blocking solution was prepared in advance (by adding Triton at a final concentration of 0.3% to 9 ml of DPBS, adding donkey serum at a final concentration of 10%, and uniformly mixing); the above-prepared blocking solution was used for blocking and perforation at room temperature for 2 hours; the blocking solution was soaked up, a working concentration of primary antibody prepared with the blocking solution was then added, and the product was left to stand at room temperature for 30 minutes and then placed in a refrigerator at 4° C. overnight; the next day, the product was washed three times with PBS, 3 minutes each time; a fluorescent secondary antibody of donkey serum was added and incubation was carried out at room temperature for 2 hours; in the same way, the product was washed three times with PBS, 3 minutes each time; the product was incubated with a working solution of the nuclear dye DAPI at room temperature for 10 minutes, and washed three times with PBS, 3 minutes each time; then a fluorescence microscope was used for observation and data were collected. […]

[4] = 2 μM inhibitor added in pancreatic progenitor cell stage
[5] = 2 μM inhibitor in pancreatic progenitor cell stage, GAPDH reference
[6] = 2 μM inhibitor in pancreatic progenitor cell stage

## Oc1nc(-c2ccc(C(F)(F)F)cc2)nc2c1CSCC2 [XAV-939]
[1]; [4]
  transcription level of the insulin gene INS in the mature pancreatic islet β cell stage: greatly increased
[1]; [5]
  relative expression of mRNA of NKX6-1 in pancreatic progenitor cells: significantly increased
  relative expression of mRNA of PDX1 in pancreatic progenitor cells: significantly increased
[2]; [4]
  transcription level of the insulin gene INS in the mature pancreatic islet β cell stage: greatly increased
[2]; [5]
  relative expression of mRNA of NKX6-1 in pancreatic progenitor cells: significantly increased
  relative expression of mRNA of PDX1 in pancreatic progenitor cells: significantly increased
[3]; 2 μM inhibitor added in pancreatic progenitor cell stage, immunofluorescence
  number of insulin INS-positive and PDX1 co-stained pancreatic islet β cells in the mature pancreatic islet β cell stage: significantly increased
[3]; [6]
  PDX1-positive pancreatic progenitor cells (immunofluorescence): significantly increased
  cell growth (total cell number by DAPI): did not affect the cell growth
